Reference: patent US20220400729A1, “SYNERGISTIC COMBINATION OF BUTYRIC-ACID-PRODUCING PREBIOTICS AND PROBIOTICS” (INNER MONGOLIA YILI INDUSTRIAL GROUP CO., LTD, priority 2019, published 2022)

Tested on: Bifidobacterium lactis HNO19
Assay: Growth test of Bifidobacterium lactis HNO19: organic acids in culture broth by HPLC
Format: cell-based
Settings: HNO19 in MRS+0.05% cysteine medium with 1% carbon source, HPLC at 12 hours
Protocol: Bifidobacterium lactis HNO19 was purchased from Danisco. The strain was cultured in de Man Rogosa Sharpe (MRS) broth (Difco, Detroit, Md.) supplemented with 0.5 g/LL-cysteine and incubated for 24 h at 37° C. under anaerobic conditions. […] After the second passage, the culture was prepared for use as inoculum for the growth tests described below. Various carbon source stock solutions were sterilized by passing through 0.22 micron filters and used at 1% final concentration. […] The contents of lactic acid, acetic acid, propionic acid and butyric acid in the above-mentioned various combined culture broths were measured by high performance liquid chromatography (HPLC) at 12 hours.

OC[C@H]1O[C@@H](O[C@@H]2[C@@H](CO)O[C@](O)(CO)[C@H]2O)[C@H](O)[C@@H](O)[C@H]1O [LOS, 4-O-β-D-galactopyranosyl-4-D-fructose]
Contents of organic acids in the culture medium: Acetic acid: 0.238 ± 0.002
Contents of organic acids in the culture medium: Lactic acid: 0.034 ± 0.002
Contents of organic acids in the culture medium: Total amount of organic acid: 0.272 ± 0.004
